The values that follow come from patent US8778961B2, “O-methylated rapamycin derivatives for alleviation and inhibition of lymphoproliferative disorders” (The Trustees of the University of Pennsylvania, priority 2000, dated 2014).

Each structure is given as a SMILES string.

In series [1] the test system is A2D6 line. The series can be described thus: apoptosis (Annexin V flow cytometry). The settings on record: 24 hours. It is filed as cell-based, human. As to the method:
(§1) The cell lines to be examined were cultured with several concentrations of SDZ RAD (0 to 10 nanomolar) for 24-48 hours. The cells were washed with DPBS and stain solution (pH 7.2) containing 3% PEG 6000, 50 micrograms per milliliter DNA fluorochrome propidium iodide (PI; Calbiochem, San Diego, Calif.), annexin V-FITC as described (Douglas et al., 1998, Cytometry 32:57-65) 0.1% (v/v) TRITON™ X (Sigma, St. Louis, Mo.), 4 millimolar citrate buffer pH 7.8, and 360 units per milliliter RNase A (Worthington Biochemicals, Freehold, N.J.) for 30 minutes at 37 C. Next, salt solution pH 7.2 (3% w/v PEG 6000, PI 50 micrograms per milliliter, 0.1% v/v TRITON™ X, and 0.4 molar NaCl) was added, and the cells were incubated at 4° C. in the dark for 1 hour before flow cytometry analysis was performed, as described (Douglas et al., 1998, Cytometry 32:57-65; Kawamata et al., 1998, Blood 91:561-569; Pepper et al., 1998, Leuk. Res. 22:439-444).
(§2) Previous studies have shown that immunosuppressive macrolides as represented by rapamycin can induce or enhance apoptosis stimulated by other agents (Gottschalk et al., 1994, Proc. Natl. Acad. Sci. USA 91:7350-7354; Muthukkumar et al., 1995, Transplantation 60:264-270; Shi et al., 1995, Cancer Res. 55:1982-1988; Hosoi et al., 1999, Cancer Res. 59:886-894). In order to determine if SDZ RAD affects the apoptotic rate in PTLD-like cells, we tested apoptosis-induced surface expression of Annexin V by flow cytometry in the 20A, A1, A2D6 cell lines (FIG. 3). […] In A2D6 line, it led to 11% increase, and in the 20A line to 12% increase. At the highest dose (10 nanomolar), SDZ RAD led to approximately 240% increase in A1 line and 45% increase in both A2D6 and 20A lines.

In series [2] the test system is 20A line. The experiment in a line: apoptosis (Annexin V flow cytometry). It is filed as cell-based, human. The settings on record: 24 hours. The procedure:
as §1, §2
A general note: Flow cytometry measures light scatter and fluorescence of single cells or particles in a stream.

Series [3] has as its system A1 line. The series can be described thus: apoptosis (Annexin V flow cytometry). It is filed as cell-based, human. The settings on record: 24 hours. As to the method: as §1, §2
Series [4] in a line: toxicity study in BALB/c and SCID mice. It is filed as in vivo. The settings on record: 5 milligrams per kilogram body weight per day. An excerpt: Five- to seven-week-old immunodeficient SCID mice (C.B-17 and ICR) were purchased from Taconic (Germantown, N.J.) and housed at the University of Pennsylvania Animal Facility under pathogen-free conditions in a laminar air flow unit and supplied with sterile food and water. In the toxicity studies, 5-7 week old inbred BALB/c mice (Taconic) were used in addition to the SCID mice.
Mice were sacrificed by exposure to FORANE™ (isoflurane, Ohmeda, Liberty Place, N.J.) on day 29 in the drug toxicity study, on day 40-55 in the tumor growth inhibition study or when tumors achieved approximately 2 centimeter diameter, or when ulceration of the skin, signs of severe respiratory distress, weakness, or lethargy appeared. Complete autopsy was performed on all mice at the end of the study regardless of their appearance. Tumor and internal organs (spleen, liver, lung, heart, kidney, small and large intestines, femoral bone for bone marrow) were fixed in 10% (v/v) formalin, embedded in paraffin, cut into […] sections, transferred to glass slides, and stained with hematoxylin and eosin. Representative tumor fragments were stained immunohistochemically by standard streptavidin-biotin complex technique using commercially available reagents (Research Genetics, Huntsville, Ala.), antibodies: anti-CD20 (L-26) and LMP-1 (both from DAKO, Carpinteria, Calif.) and Ki67 (mib1; Immunotech, Westbrook, Me.). EBV-encoded RNA (EBER-1), and detected using commercially available reagents.
Previous studies have shown that a minimal effective dose of SDZ RAD in rats was 5 milligrams per kilogram body weight per day and >5 milligrams per kilogram body weight per day in the in kidney and heart transplant model, respectively, when SDZ RAD was used as a single immunosuppressive agent (Schuurman et al., 1997, Transplantation 64:32-5; Schuler et al. 1997, Transplantation 64: 36-42). In order to determine if prolonged exposure to SDZ RAD is non-toxic for mice, both immunocompetent and immunodeficient, a cohort of normal BALB/c mice were treated with the above dose of SDZ RAD for 28 days. Ten treated and 5 control, untreated mice were used in this study. Later SCID mice which were transplanted with human PTLD-like lymphomas and treated with SDZ RAD for up to 55 days were evaluated. Seven treated and 5 control untreated SCID mice were evaluated in this experiment. After receiving the final dose of the drug, all mice were sacrificed and the following organs were harvested for histopathologic evaluation to investigate for possible toxic effects: liver, spleen, kidney, small intestine, large intestine, heart, lung, and femoral bone for bone marrow.

The mark [5] stands for this setting: BALB/c 28 days, SCID up to 55 days.

Consider `CO[C@H]1C[C@@H]2CC[C@@H](C)[C@@](O)(O2)C(=O)C(=O)N2CCCC[C@H]2C(=O)O[C@H]([C@H](C)C[C@@H]2CC[C@@H](OCCO)[C@H](OC)C2)CC(=O)[C@H](C)/C=C(\C)[C@@H](O)[C@@H](OC)C(=O)[C@H](C)C[C@H](C)/C=C/C=C/C=C/1C` [SDZ RAD, 40-O-(2-hydroxy)ethyl-rapamycin], for which the “increase in the number of apoptotic cells” value in series [1] (1 nanomolar) is on record as 11%; in series [1] (10 nanomolar) it was 45%; in series [2] (1 nanomolar) it was 12%; in series [2] (10 nanomolar), 45%; in series [3] (1 nanomolar), “approximately 60%”; in series [3] (10 nanomolar) it was “approximately 240%”. Further, in series [3] (1 nanomolar, from 10% without drug), the “percentage of apoptotic cells” value is reported as 16%. The “growth and weight gain vs control group” value in series [4] (setting [5]) is listed as “the same”. Further, the “visible signs of drug toxicity” value in series [4] (setting [5]) is given as “None of the treated mice”. Further, in series [4] (liver, spleen, kidney, intestines, heart, lung, bone marrow), the “microscopic evaluation of organs” value was “no pathologic changes”. The “adverse effect of prolonged exposure” value in series [4] (regardless of immune status) is given as “no adverse effect”.
